Data: patent US8822541B2, “Use of targeted nitroxide agents in mitigating or treating radiation injury” (University of Pittsburgh—Of the Commonwealth System of …, priority 2008, dated 2014)
Values joined by “and” are separate entries in the source; they are usually repeats but may differ in a detail not shown here. Identical values can stand only once. “Also recorded” adds a separate entry of the source.

Assays:
[1] = system: mice exposed to total body irradiation; assay: Survival of mice after total body irradiation; format: in vivo, mouse
Method: Mice received intraperitoneal injection of 10 mg. per kilogram of each of the chemicals indicated in FIG. 5, then 24 hours later received 9.75 Gy total body irradiation according to published methods. Mice were followed for survival according to IACUC regulations. […] (P=0.0008).
Groups of 15 mice received intraperitoneal injection of 10 mg. per kilogram of each indicated GS-nitroxide compound or carrier (Cremphora plus alcohol at 1 to 1 ratio, then diluted 1 to 10 in distilled water). Mice received 10 mg per kilogram intra-peritoneal injection 24 hours prior to total body irradiation. Control mice received radiation alone. […] (P=0.0005)
C57BL/6NHsd female mice were irradiated to 9.5 Gy whole body irradiation. At 10 min, 30 min, 1 hr, 4 hr, or 8 hr after irradiation, the mice were injected intraperitoneally with JP4-039 (10 mg/kg). The mice were followed for the development of the irradiation induced hematopoietic syndrome.
Mice were irradiated to 9.5 Gy and injected IP 10 minutes later with concentration of JP-4-039 ranging from 0.5 mg/kg to 10 mg/kg. The mice were followed for developments of the hematopoietic syndrome. The optimal dose of JP4-039 providing the best irradiation protection is 5 mg/kg.

[2] = system: MEF cells from wild-type mouse embryos; assay: Toxicity of JP4-039 in wild-type MEF cultures; format: cell-based; settings: up to 10 μM, 48 hours
Method: To assess the therapeutic potential of JP4-039, tests for safety and protective activity were performed. FIGS. 35 and 36 show the results of tests to evaluate whether varying concentrations of JP4-039 produce toxic effects after 48 hours in cultures of MEF cells prepared from Ercc1^−/− or wild-type mouse embryos, respectively.

32D cl 3 cells = assay: EPR-based analysis of nitroxide distribution and partitioning in subcellular fractions; format: cell-based, mouse; settings: 10 μM, 1 h
Method: To determine nitroxide partitioning and distribution in subcellular compartments, electron paramagnetic resonance (EPR) was utilized. 32D cl 3 cells were incubated for 24 h under pelleted or flask growth conditions. After incubation, 150×10^6 cells were resuspended at a concentration of 10×10^6 cells/mL and were treated with 10 μM JP4-039 or 10 μM TEMPO for 1 h (Wipf P, et al., Mitochondrial targeting of selective electron scavengers: synthesis and biological analysis of hemigramicidin-TEMPO conjugates. J Am Chem. Soc. 127: 12460-12461, 2005).
Subcellular compartments were isolated by differential centrifugation. Cells were centrifuged at 1500 RPM for 10 min and the supernatant (media) was removed. The remaining whole cell pellet was washed with cold PBS, resuspended in 0.3 mL of hypotonic buffer solution, and incubated on ice for 45 min. Cells were then lysed by three rapid freeze-thaw cycles in liquid nitrogen for 30 sec and water at 25° C. for 3 min. Lysed cells were centrifuged at 3000×g for 5 min to isolate nucleus and cellular debris. Supernatant was centrifuged at 12000×g for 45 min to isolate mitochondria from cytoplasm (Wipf P, et al., Mitochondrial targeting of selective electron scavengers: synthesis and biological analysis of hemigramicidin-TEMPO conjugates. J Am Chem. Soc. 127: 12460-12461, 2005).
Each cellular fraction (media, whole cell pellet, nucleus/cellular debris, mitochondria, and cytoplasm) was mixed with DMSO (1:1 vol/vol) and 2 mM of potassium ferricyanide (K3Fe(CN)6) to convert […] to EPR-detectable radical forms (Behringer W, et al., Antioxidant Tempol enhances hypothermic cerebral preservation during prolonged cardiac arrest in dogs. J Cereb Blood Flow Metab. 22: 105-117, 2002). 70 μL of the homogenate was loaded into Teflon tubing (0.8 mm internal diameter) (Alpha Wire Corp., Elizabeth, N.J.) which was folded in half and placed into an open ESR quartz tube (inner diameter of 3.0 mm). EPR measurements were made in triplicate using a JEOL-RE1X EPR spectrometer (Jeol, Tokyo, Japan) under the following conditions: 334.7 mT center field, 5 mT sweep width, 0.079 mT field modulation, 20 mW microwave power, 0.1 sec time constant, and 2 min scan time at 22.5° C. Utilizing signal magnitude and isolated volumes, amount and concentration of JP4-039 or TEMPO were calculated for each sample.

mouse embryonic cells = assay: EPR-based analysis of integration and reduction of nitroxide Gramicidin S-peptidyl conjugates in MECs; format: cell-based; settings: following incubation with solutions of the compounds
Method: Electron paramagnetic resonance (“EPR”) spectroscopy was used to monitor the cellular delivery of compounds 5a and 5b shown in FIG. 3 in mouse embryonic cells (“MEC”).
The following conditions were used during the EPR-based analysis of the integration and reduction of nitroxide Gramicidin S-peptidyl conjugates in MECs. The MECs at a concentration of 10 million MECs per mL were incubated with 10 μM of 4-AT and compound 5a, respectively. Recovered nitroxide radicals in whole cells, mitochondria, and cytosol fractions were resuspended in phosphate buffer saline (“PBS”) in the presence and absence, respectively, of 2 μM K3Fe(CN)6.

Row | Structure (SMILES) | survival of mice ([1]; 9.5 Gy TBI, 10 mg/kg ip 24 hours prior) | optimal time of delivery for radiation mitigation ([1]; 9.5 Gy, 10 mg/kg ip after irradiation) | optimal dose providing the best irradiation protection ([1]; 9.5 Gy, IP 10 minutes after irradiation) | survival of mice ([1]; 9.75 Gy TBI, 10 mg/kg ip 24 hours before) | toxicity [2] | cellular EPR signal detected in mitochondria (32D cl 3 cells; exponential growth) | cellular EPR signal in nucleus and/or cellular debris (32D cl 3 cells; exponential growth) | cellular EPR signal in the cytoplasm (32D cl 3 cells; exponential growth) | concentration in the nucleus and cellular debris (32D cl 3 cells; exponential growth) | concentration in the whole cell pellet (32D cl 3 cells; exponential growth) | mitochondrial concentration (32D cl 3 cells; exponential growth) | cellular EPR signal in nucleus and/or cellular debris (32D cl 3 cells; pelleted cells) | cellular EPR signal in the cytoplasm (32D cl 3 cells; pelleted cells) | cellular EPR signal localized to the mitochondria (32D cl 3 cells; pelleted cells) | mitochondrial concentration (32D cl 3 cells; pelleted cells) | concentration in the mitochondria of cultured mouse embryonic cells (mouse embryonic cells)
1 | CC(C)C[C@@H](/C=C/CC(=O)NC1CC(C)(C)N([O])C(C)(C)C1)NC(=O)OC(C)(C)C [JP4-039, TEMPO-4-yl-(S,E)-5-(tert-butoxycarbonylamino)-7-methyloct-3-enamide] | increases survival | 1 h | 5 mg/kg | significant increase in survival | no signs of toxicity; also recorded: not toxic | 5.0±0.3% | 37.2±0.3% | 19.4±1.6% | 10.1 ± 0.1 µM | 12.6 ± 0.2 µM | 8.5 ± 0.5 µM | 33.2±3.8% | 29.5±0.7% | 3.9±0.2% | 10.90 ± 0.48 µM and 10.9 µM | –
2 | CC(C)C[C@@H](/C=C/[C@H](Cc1ccccc1)C(=O)N1CCC[C@H]1C(=O)N[C@H](C(=O)N[C@@H](CCCNC(=O)OCc1ccccc1)C(=O)NC1CC(C)(C)N([O])C(C)(C)C1)C(C)C)NC(=O)OC(C)(C)C [XJB-5-131] | – | – | – | – | – | – | – | – | – | – | – | – | – | – | – | concentrated in the mitochondria
